From patent US8193208B2 (Purdue Pharma L.P., priority 2005, dated 2012)

Assays:
Format in all cases: cell-based
[1] = molecular target: T1, N-type calcium channel (NTCC) (Homo sapiens, UniProt Q00975); test: FLIPR calcium mobilization assay for N-type calcium channel (differentiated IMR32 cells); parameters: differentiated IMR32 cells were treated with 1×; endogenous in cells; host or cells: IMR32 cells (ATCC), differentiated 8 days with dibutyryl cAMP and bromodeoxyuridine; details: calcium mobilization in vitro assay; N-type calcium channel block
Method: Cell maintenance and differentiation. Unless noted otherwise, cell culture reagents were purchased from Mediatech of Herndon, Md. IMR32 cells (American Type Culture Collection, ATCC, Manassas, Va.) were routinely cultured in growth medium consisting of minimum essential medium containing 10% fetal bovine serum (FBS, Hyclone, Logan, Utah), 100 U/mL penicillin, 100 μg/mL streptomycin, 2 mM L-glutamine, 1 mM sodium pyruvate, and 1×MEM non-essential amino acids. 80-90% confluent flasks of cells were differentiated using the following differentiation medium: Growth medium plus 1 mM dibutyryl cyclic AMP (Sigma, St. Louis, Mo.), and 2.5 μM bromodeoxyuridine (Sigma). […]
CellStripper, and seeded on poly-D-lysine-coated 96-well clear-bottom black plates (Becton Dickinson, Franklin Lakes, N.J.) at 200,000 cells/well. […] Plates were then transferred to a Fluorimetric Imaging Plate Reader (FLIPR^96, Molecular Devices, Inc., Sunnyvale, Calif.) for assay. The FLIPR measured basal Fluo-4 fluorescence for 315 seconds (i.e., 5 minutes and 15 seconds), then added 0.1 mL KCl agonist dissolved in IMR32 buffer and measured fluorescence for another 45 seconds. Final test compound concentrations on the cells after FLIPR read ranged from about 846 pM to about 17 μM, final nitrendipine concentration was 5 μM, and final KCl concentration was 90 mM. […]

[2] = molecular target: T1, N-type calcium channel (NTCC); test: as above; parameters: endogenous in cells; host or cells: IMR32 cells (ATCC), differentiated 8 days with dibutyryl cAMP and bromodeoxyuridine; details: calcium mobilization in vitro assay; N-type calcium channel block
Method: Cell maintenance and differentiation. Unless noted otherwise, cell culture reagents were purchased from Mediatech of Herndon, Md. IMR32 cells (American Type Culture Collection, ATCC, Manassas, Va.) were routinely cultured in growth medium consisting of minimum essential medium containing 10% fetal bovine serum (FBS, Hyclone, Logan, Utah), 100 U/mL penicillin, 100 μg/mL streptomycin, 2 mM L-glutamine, 1 mM sodium pyruvate, and 1×MEM non-essential amino acids. 80-90% confluent flasks of cells were differentiated using the following differentiation medium: Growth medium plus 1 mM dibutyryl cyclic AMP (Sigma, St. Louis, Mo.), and 2.5 μM bromodeoxyuridine (Sigma). Cells were differentiated for 8 days by replacing differentiation medium every 2-3 days.
FLIPR Calcium Mobilization Assay for N-type Calcium Channel. One day prior to performing this assay, differentiated IMR32 cells were treated with 1×
CellStripper, and seeded on poly-D-lysine-coated 96-well clear-bottom black plates (Becton Dickinson, Franklin Lakes, N.J.) at 200,000 cells/well. On the day of the assay, the cell plates were washed with IMR32 buffer (127 mM NaCl, 1 mM KCl, 2 mM MgCl2, 700 μM NaH2PO4, 5 mM CaCl2, 5 mM NaHCO3, 8 mM HEPES, 10 mM glucose, pH 7.4), then pre-stimulated with KCl and loaded as follows: 0.05 mL of IMR32 buffer, 0.05 mL of each compound tested diluted in IMR32 buffer containing 20 μM nitrendipine (Sigma), and 0.1 mL KCl dissolved in IMR32 buffer, plus Fluo-4 were added (3 μM final concentration, Molecular Probes, Eugene, Oreg.). Final test compound concentrations ranged from about 846 pM to about 17 μM, final nitrendipine concentration was 5 μM, and final KCl concentration was 90 mM. After 1 hour, the cells were washed twice with 0.05 mL of each compound tested in nitrendipine-containing IMR32 buffer (no KCl or Fluo-4), and then replaced with 0.1 mL of each compound tested in nitrendipine-containing IMR32 buffer. Plates were then transferred to a Fluorimetric Imaging Plate Reader (FLIPR^96, Molecular Devices, Inc., Sunnyvale, Calif.) for assay. The FLIPR measured basal Fluo-4 fluorescence for 315 seconds (i.e., 5 minutes and 15 seconds), then added 0.1 mL KCl agonist dissolved in IMR32 buffer and measured fluorescence for another 45 seconds. Final test compound concentrations on the cells after FLIPR read ranged from about 846 pM to about 17 μM, final nitrendipine concentration was 5 μM, and final KCl concentration was 90 mM. Data were collected over the entire time course and analyzed using Excel, Graph Pad Prism (version 3.02, Graph Pad, San Diego, Calif.), or an in-house non-linear regression analysis software.

[3] = molecular target: T2, L-type calcium channel (LTCC) (Rattus norvegicus, UniProt P22002); test: FLIPR calcium mobilization assay for L-type calcium channel (HEK293 cells expressing recombinant rat LTCC subunits, or alternatively differentiated A7r5 cells); details: calcium mobilization in vitro assay; L-type calcium channel block
T2 construct: The 6.5 kb cDNA encoding the L-type calcium channel α1c subunit was cloned by PCR amplification from rat heart cDNA; expressed in transfected cells; host or cells: HEK293 (ATCC), stably transfected
Method: A7r5 (ATCC) cells were maintained and routinely cultured in A7r5 growth medium consisting of Dulbecco's Modified Eagles Medium containing 10% FBS, 100 U/mL penicillin, 100 μg/mL streptomycin, 4 mM L-glutamine, and 0.15% sodium bicarbonate. 80-90% confluent flasks of cells were differentiated using the following differentiation medium: A7r5 Growth Medium plus 1 mM dibutyryl cyclic AMP (Sigma). Cells were differentiated for 8 days by replacing differentiation medium every 2-3 days.
FLIPR Calcium Mobilization Assay for L-type Calcium Channel. One day prior to performing this assay, HEK293 cells stably expressing recombinant rat L-type calcium channel (LTCC) subunits (α1c, α2δ, and β1) are trypsinized, then seeded on poly-D-lysine-coated 96-well clear-bottom black plates (Becton Dickinson, Franklin Lakes, N.J.) at 75,000 cells/well. On the day of the assay, the plates are washed with LTCC wash buffer (127 mM NaCl, 2 mM MgCl2, 700 μM NaH2PO4, 5 mM CaCl2, 5 mM NaHCO3, 8 mM HEPES, 10 mM glucose, pH 7.4), then loaded with 0.1 mL of LTCC wash buffer containing Fluo-4 (3 μM final concentration, Molecular Probes, Eugene, Oreg.). After 1 hour, the cells are washed with 0.1 mL LTCC wash buffer and resuspended in 0.05 mL LTCC assay buffer (same composition as LTCC wash buffer). Plates are then transferred to a FLIPR^96 for assay. The FLIPR measures basal Fluo-4 fluorescence for 15 seconds, then adds 0.05 mL of each compound tested diluted in LTCC assay buffer at final concentrations ranging from about 846 pM to about 17 μM. Fluo-4 fluorescence is then measured for 5 minutes. 0.1 mL KCl agonist dissolved in LTCC assay buffer is then added to the cells to produce a final concentration of 90 mM KCl, and fluorescence is measured for another 45 seconds. Data are collected over the entire time course and analyzed using Excel, Graph Pad Prism, or an in-house regression analysis software.
Alternative FLIPR Calcium Mobilization Assay for L-type Calcium Channel. Alternatively, the following cell line and procedure was used for the FLIPR calcium mobilization assay for L-type calcium channel. One day prior to performing this assay, differentiated A7r5 cells were trypsinized, then seeded on tissue culture treated 96-well clear-bottom black plates (Becton Dickinson, Franklin Lakes, N.J.) at a dilution of 1:1 from a confluent T150 cm^2 flask. On the day of the assay, the plates were washed with A7r5 wash buffer (127 mM NaCl, 2 mM MgCl2, 700 μM NaH2PO4, 5 mM CaCl2, 5 mM NaHCO3, 8 mM HEPES, 10 mM glucose, pH 7.4), then loaded with 0.1 mL of A7r5 wash buffer containing Fluo-4 (3 μM final concentration, Molecular Probes, Eugene, Oreg.). After 1 hour, the cells were washed with 0.1 mL A7r5 wash buffer and resuspended in 0.05 mL A7r5 assay buffer that was composed of A7r5 wash buffer plus 50 μM valinomycin (Sigma). Plates were then transferred to a FLIPR^96 for assay. The FLIPR measured basal Fluo-4 fluorescence for 15 seconds, then added 0.05 mL of each compound tested diluted in A7r5 assay buffer at final concentrations ranging from about 846 pM to about 17 μM. Fluo-4 fluorescence was then measured for 5 minutes. 0.1 mL KCl agonist dissolved in A7r5 assay buffer is then added to the cells to produce a final concentration of 90 mM KCl, and fluorescence was measured for another 45 seconds. Data were collected over the entire time course and analyzed using Excel, Graph Pad Prism, or an in-house regression analysis software.

T2 sequence (P22002 whole entry): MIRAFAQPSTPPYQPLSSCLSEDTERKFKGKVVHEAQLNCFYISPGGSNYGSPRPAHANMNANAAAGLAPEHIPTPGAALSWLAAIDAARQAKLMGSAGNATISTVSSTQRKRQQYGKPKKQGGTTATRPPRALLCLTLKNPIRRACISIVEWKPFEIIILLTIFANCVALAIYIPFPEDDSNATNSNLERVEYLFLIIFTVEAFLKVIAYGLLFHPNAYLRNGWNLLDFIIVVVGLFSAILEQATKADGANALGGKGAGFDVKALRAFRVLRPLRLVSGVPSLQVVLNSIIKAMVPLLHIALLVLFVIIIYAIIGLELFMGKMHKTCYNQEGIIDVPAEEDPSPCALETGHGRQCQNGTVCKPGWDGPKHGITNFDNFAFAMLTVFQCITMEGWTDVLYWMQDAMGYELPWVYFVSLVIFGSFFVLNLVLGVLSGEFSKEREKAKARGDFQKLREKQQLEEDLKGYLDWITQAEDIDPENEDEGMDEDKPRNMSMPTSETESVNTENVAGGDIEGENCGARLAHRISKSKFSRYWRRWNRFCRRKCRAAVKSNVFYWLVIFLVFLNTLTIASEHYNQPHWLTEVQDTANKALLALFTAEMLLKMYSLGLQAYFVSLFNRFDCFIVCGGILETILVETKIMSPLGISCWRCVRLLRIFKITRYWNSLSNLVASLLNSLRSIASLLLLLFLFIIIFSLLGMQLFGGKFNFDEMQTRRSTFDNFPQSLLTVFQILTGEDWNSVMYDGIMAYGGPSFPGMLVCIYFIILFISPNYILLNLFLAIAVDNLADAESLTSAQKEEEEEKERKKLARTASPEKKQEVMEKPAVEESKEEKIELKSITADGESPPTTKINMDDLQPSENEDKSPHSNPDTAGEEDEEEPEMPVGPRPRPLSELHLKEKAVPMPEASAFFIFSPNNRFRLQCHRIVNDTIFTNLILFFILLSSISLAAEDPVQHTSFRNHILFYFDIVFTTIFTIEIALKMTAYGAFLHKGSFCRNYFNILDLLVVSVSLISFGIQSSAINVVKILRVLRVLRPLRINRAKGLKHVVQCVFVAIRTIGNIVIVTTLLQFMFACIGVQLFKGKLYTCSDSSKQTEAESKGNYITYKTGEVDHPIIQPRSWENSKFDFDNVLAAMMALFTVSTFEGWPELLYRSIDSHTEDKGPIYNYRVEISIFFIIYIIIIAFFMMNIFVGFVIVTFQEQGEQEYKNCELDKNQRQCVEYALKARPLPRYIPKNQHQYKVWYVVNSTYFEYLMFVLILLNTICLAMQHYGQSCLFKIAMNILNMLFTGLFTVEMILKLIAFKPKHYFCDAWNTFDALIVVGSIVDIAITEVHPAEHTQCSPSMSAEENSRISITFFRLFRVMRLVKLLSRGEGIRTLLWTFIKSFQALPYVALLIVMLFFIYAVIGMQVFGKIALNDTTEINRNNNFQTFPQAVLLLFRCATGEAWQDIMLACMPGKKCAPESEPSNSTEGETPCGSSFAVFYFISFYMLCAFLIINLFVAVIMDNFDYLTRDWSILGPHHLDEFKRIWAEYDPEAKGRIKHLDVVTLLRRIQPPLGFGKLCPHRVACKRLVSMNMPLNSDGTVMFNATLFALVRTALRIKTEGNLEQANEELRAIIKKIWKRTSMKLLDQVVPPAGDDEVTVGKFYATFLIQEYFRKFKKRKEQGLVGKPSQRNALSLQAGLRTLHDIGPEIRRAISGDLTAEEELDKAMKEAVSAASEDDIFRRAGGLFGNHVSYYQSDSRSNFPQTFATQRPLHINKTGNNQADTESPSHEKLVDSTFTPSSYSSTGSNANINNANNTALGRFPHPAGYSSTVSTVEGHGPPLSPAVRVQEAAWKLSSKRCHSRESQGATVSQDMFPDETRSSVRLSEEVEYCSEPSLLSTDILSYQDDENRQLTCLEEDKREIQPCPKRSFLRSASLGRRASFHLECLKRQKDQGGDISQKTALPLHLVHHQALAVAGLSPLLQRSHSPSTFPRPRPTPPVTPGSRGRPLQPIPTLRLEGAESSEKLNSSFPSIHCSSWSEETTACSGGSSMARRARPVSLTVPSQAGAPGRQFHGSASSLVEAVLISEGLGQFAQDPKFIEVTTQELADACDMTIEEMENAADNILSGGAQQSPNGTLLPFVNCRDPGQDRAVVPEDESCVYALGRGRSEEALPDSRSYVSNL
T2 sequence (P54290 25-944 partner limits assumed): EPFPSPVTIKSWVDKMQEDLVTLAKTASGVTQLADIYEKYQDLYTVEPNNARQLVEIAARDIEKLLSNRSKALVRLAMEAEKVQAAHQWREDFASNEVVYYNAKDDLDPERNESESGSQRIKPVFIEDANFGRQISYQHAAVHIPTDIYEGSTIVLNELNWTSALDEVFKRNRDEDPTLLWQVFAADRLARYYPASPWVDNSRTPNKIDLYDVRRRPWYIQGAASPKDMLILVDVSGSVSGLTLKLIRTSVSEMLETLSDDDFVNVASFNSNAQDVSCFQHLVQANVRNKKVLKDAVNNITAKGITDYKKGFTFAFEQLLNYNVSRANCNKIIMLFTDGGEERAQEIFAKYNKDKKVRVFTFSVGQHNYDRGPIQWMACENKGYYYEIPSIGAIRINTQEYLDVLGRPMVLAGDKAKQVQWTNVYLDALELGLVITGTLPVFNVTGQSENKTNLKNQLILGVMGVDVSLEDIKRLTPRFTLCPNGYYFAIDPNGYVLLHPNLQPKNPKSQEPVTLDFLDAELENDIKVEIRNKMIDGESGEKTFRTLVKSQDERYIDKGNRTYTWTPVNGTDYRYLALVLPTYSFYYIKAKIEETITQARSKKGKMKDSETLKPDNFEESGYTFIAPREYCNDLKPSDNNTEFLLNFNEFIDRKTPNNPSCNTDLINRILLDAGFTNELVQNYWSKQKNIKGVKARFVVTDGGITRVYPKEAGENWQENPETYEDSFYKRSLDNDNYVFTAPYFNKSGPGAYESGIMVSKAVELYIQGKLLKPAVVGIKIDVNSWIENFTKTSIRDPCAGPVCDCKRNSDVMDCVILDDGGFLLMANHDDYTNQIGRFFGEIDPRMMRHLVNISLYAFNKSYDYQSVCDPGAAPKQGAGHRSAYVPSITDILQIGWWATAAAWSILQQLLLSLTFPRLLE
T2 sequence (P54290 945-1091 partner limits assumed): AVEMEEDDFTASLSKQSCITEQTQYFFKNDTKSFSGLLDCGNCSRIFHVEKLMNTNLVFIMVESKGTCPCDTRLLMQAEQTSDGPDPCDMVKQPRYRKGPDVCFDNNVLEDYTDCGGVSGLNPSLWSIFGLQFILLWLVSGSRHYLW
T2 sequence (P54283 whole entry partner): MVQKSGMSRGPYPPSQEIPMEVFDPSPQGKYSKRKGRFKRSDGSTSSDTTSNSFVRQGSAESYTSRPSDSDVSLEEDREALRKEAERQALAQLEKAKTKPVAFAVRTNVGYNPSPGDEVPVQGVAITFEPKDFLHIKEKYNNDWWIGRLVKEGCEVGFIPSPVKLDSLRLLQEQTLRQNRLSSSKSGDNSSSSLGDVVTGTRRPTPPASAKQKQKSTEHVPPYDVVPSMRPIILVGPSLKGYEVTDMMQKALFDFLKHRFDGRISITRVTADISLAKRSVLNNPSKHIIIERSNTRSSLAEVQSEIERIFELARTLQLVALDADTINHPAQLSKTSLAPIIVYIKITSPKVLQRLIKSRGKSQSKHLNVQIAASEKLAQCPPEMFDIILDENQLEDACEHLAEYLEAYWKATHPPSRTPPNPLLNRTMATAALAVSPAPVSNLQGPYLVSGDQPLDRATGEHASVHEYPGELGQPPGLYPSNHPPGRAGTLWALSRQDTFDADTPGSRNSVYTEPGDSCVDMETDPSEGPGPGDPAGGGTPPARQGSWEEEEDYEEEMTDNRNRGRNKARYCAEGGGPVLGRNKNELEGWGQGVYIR

| Compound | IC50 [1] [µM] | IC50 [2] [µM] | IC50 [3] [µM] |
| --- | --- | --- | --- |
| CC(C)c1ccc(CN2CCC3(C=Cc4cccnc43)CC2)cc1 | 10 to 20 | – | – |
| O=C(CCC(c1ccc(F)cc1)c1ccc(F)cc1)N1CCC2(CCc3ccccc32)CC1 [Compound 35, 1-[4,4-bis(4-fluorophenyl)butanoyl]-spiro[piperidine-4,1′-indane]] | – | 4.92 | > 20 |
| O=C1OC2(CCN(CCCC(c3ccc(F)cc3)c3ccc(F)cc3)CC2)c2ccccc21 [Compound 12, 1,3-Dihydro-1′-[4,4-bis(4-fluorophenyl)butyl]-spiro[isobenzofuran-1,4′-piperidine]-3-one] | – | 0.46 | 3.95 |
| O=C1Nc2ccccc2C12CCN(CCCC(c1ccc(F)cc1)c1ccc(F)cc1)CC2 [Compound 60, 2,3-Dihydro-1′-[4,4-bis(4-fluorophenyl)butyl]-spiro[indole-3,4′-piperidine]-2-one] | – | 1.05 | 3.8 |
| O=C1OC2(CCN(CCCN(c3ccc(F)cc3)c3ccc(F)cc3)CC2)c2ccccc21 [Compound 68, 1,3-Dihydro-1′-{3-[N,N-bis(4-fluorophenyl)amino]propyl}-spiro[isobenzofuran-1,4′-piperidine]-3-one] | – | 0.23 | > 20 |
| COc1ccc(CN2CCC3(C=Cc4ccccc43)CC2)cc1 [Compound 37, 1-(4-methoxybenzyl)-spiro[piperidine-4,1′-indene]] | – | 0.82 | 5.44 |
| COc1ccc(C(=O)N2CCC3(C=Cc4ccccc43)CC2)cc1C(F)(F)F [1-(3-trifluoromethyl-4-methoxybenzoyl)-spiro[piperidine-4,1′-indene]] | – | 2.29 | 5.74 |
